Read-outs that look alike come from different tables or passages of the source.

Consider 21 compounds from PMC8734228 (Cancer discovery, 2021).

Series [1] relates to ErbB2. Conditions: read-out: IC50 ErbB2; cited from earlier work.
The subject of series [2] is FLC PDX cells. The series is described as follows: Validation screen on cells dissociated from FLC PDX. Conditions: for Effect on FLC PDX cells in vitro (dose response, normalized percent survival): 10nM-10μM, FLC1-6; for Effect on FLC PDX cells in vitro (dose response, normalized percent survival) / EC50: 72 h; for Efficacy ranking in the screen: ranked by average −log10EC50 for FLC1-5 minus −log10EC50 for PHH; for Therapeutic window for FLC over PHH: FLC PDX cells compared with PHH. Type of series: cell-based, human.

In series [3] the test system is AURKA. The note with it: read-out: IC50 AURKA; cited from earlier work.
Series [4] deals with FLC1 cells. The series is described as follows: Role of ROS: survival with or without N-acetyl cysteine 10mM. It is filed as cell-based, human. The note with it: NAC 10mM, 72 h.
Series [5] relates to primary human hepatocytes (PHH). The series is described as follows: Validation counter-screen on primary human hepatocytes. The note with it: 72 h; for EC50: read-out: EC50 PHH; for Effect on PHH (dose response, normalized percent survival): up to 10 μM. (In general: The purpose of a counterscreen is to sort out artefacts and off-target activity.)
Series [6] deals with cells dissociated directly from patient tumors (FLC.T6-T11). The series is described as follows: Direct from patient in vitro screening. Type of series: cell-based, human. Conditions: for Sensitivity of cells tested directly from patients: 10μM-10nM, 72h, Cell Titer Glo; for Drug sensitivity of FLC.T6 compared with derived PDX FLC6 (EC50): cells direct from patient tumor vs cells from its PDX. (In general: ATP-based viability assays read luminescence as a measure of living cells.)

The test system of series [7] is FLC1,3,5 cells. The series is described as follows: Synergy assay, combination matrix with panobinostat. Type of series: cell-based, human.
Series [8] relates to FLC5 cells. The series is described as follows: Anchor screen, synergy assay. It is filed as cell-based, human. The note with it: FLC5, ZIP, Bliss and HSA scores.
In series [9] the test system is FLC PDX. The series is described as follows: In vivo drug testing of HDAC inhibitors in mice bearing PDX.
The subject of series [10] is FLC1 PDX. The series is described as follows: In vivo drug testing in mice bearing PDX FLC1.
Series [11] has as its system eIF4F sensitive proteins in FLC6 cells. The series is described as follows: Immunoblot of eIF4F sensitive protein levels. Type of series: cell-based, human.
Series [12] has as its system FLC5 PDX cells. The series is described as follows: Validation screen, 11-point dose response, 72 h, Cell Titer Glo. Type of series: cell-based, human. Conditions: read-out: EC50 FLC; FLC5, 72 h.
Series [13] relates to FLC2 PDX cells. The series is described as above. It is filed as cell-based, human. Conditions: read-out: EC50 FLC; FLC2, 72 h.
The test system of series [14] is FLC4 PDX cells. The series is described as above. It is filed as cell-based, human. The note with it: read-out: EC50 FLC; FLC4, 72 h.
Series [15] relates to FLC3 PDX cells. The series is described as above. It is filed as cell-based, human. The note with it: read-out: EC50 FLC; FLC3, 72 h.
For series [16], the system named is FLC1 PDX cells. The series is described as above. It is filed as cell-based, human. Conditions: read-out: EC50 FLC; FLC1, 72 h.
Series [17] concerns the target PKG. The note with it: read-out: Ki against other kinases: PKG; cited from earlier work.
Series [18] deals with PKA. Conditions: read-out: Ki PKA; cited from earlier work.
The test system of series [19] is cells dissociated from PDX FLC1 and FLC5. The series is described as follows: Primary high throughput screen, 1μM, 72 h. It is filed as cell-based, human. The note with it: pass = survival <60%.
[20] abbreviates: napabucasin 10mg/kg IP, 5 days on 2 days off, FLC1.
Setting [21] is: napabucasin 10mg/kg IP, 14 days.
[22] abbreviates: napabucasin 10mg/kg, after 14 days.

Broadly, the IC50 is the concentration that inhibits the measured activity by half. With `COCC(=O)NC/C=C/c1ccc2ncnc(Nc3ccc(Oc4ccc(C)nc4)c(C)c3)c2c1` [CP-724714], the IC50 in series [1] is 0.01 µM. Also, the “Effect on FLC PDX cells in vitro (dose response, normalized percent survival)” value in series [2] was “no effect”.

By EC50 is commonly meant the midpoint of the concentration-response curve. For Aurora Kinase Inhibitor I, the EC50 in series [2] (read-out: EC50 against the PDX cells) fell in the range of 1 to 4 µM. In addition, the IC50 in series [3] is 0.0034 µM.

Take `Cc1ccc(NC2=CC(=O)c3sc(C)nc3C2=O)cc1` [ryuvidine]: the “Effect of N-acetyl cysteine (NAC) on the toxicity of the drug” value (“Effect of N-acetyl cysteine (NAC)” for short) in series [4] is given as “completely abrogated”. Moreover, in series [2], the “Effect on FLC PDX cells in vitro (dose response, normalized percent survival)” value is reported as “effective against all PDX lines” and the “Efficacy ranking in the screen” value is on record as “third”. For the same compound, the EC50 in series [2] (read-out: EC50 against FLC PDX in vitro, across all FLC PDX lines) was 0.02 to 0.2 µM. Besides, the EC50 in [5] is more than 10 µM.

With `CC(C)c1c2cc(-c3ccnc(NC4CCC(NC5CCOCC5)CC4)n3)ccc2nn1C` (stereo not drawn) [LY2857785], the “Sensitivity of cells tested directly from patients” value (“Sensitivity … from patients” for short) in series [6] is reported as “some sensitivity”. In addition, in series [4], the “Effect of N-acetyl cysteine (NAC)” value is listed as “mildly attenuated”.

In the case of `CC1(C)CCC(CN2CCN(c3ccc(C(=O)NS(=O)(=O)c4ccc(NCC5CCOCC5)c([N+](=O)[O-])c4)c(Oc4cnc5[nH]ccc5c4)c3)CC2)=C(c2ccc(Cl)cc2)C1` [venetoclax], in [2], the “Effect on FLC PDX cells in vitro (dose response, normalized percent survival)” value is recorded as “minimal activity” and the “Efficacy ranking in the screen” value was “towards the bottom of the ranking”. In [7], the “Synergy with panobinostat (ZIP synergy score)” value (from here on “Synergy with panobinostat”) is listed as “no synergy”.

Regarding `Cc1cc(Nc2cc(N3CCN(C)CC3)nc(/C=C/c3ccccc3)n2)n[nH]1` [ENMD-2076], the EC50 in [2] (Homo sapiens, read-out: EC50 against the PDX cells) is more than 5 µM. In addition, the “Efficacy ranking in the screen” value in series [2] amounted to 123. Further, in series [8], the “Synergy with A1331852” value was “All drugs, apart from ENMD-2076 and uprosertib, showed some synergy”. Moreover, the IC50 in series [3] was […].

`Cc1c2c(nn1C)CSCc1cc(n(C)n1)CSc1cc(c3ccccc3c1)OCCCc1c(C(=O)O)n(C)c3c-2c(Cl)ccc13` [AZD5991]: the “Synergy with panobinostat” value in series [7] is given as “more modest synergy”.

On to `Cn1cc(CNCC2CCN(c3ncc(C(=O)NO)cn3)CC2)c2ccccc21` [quisinostat], for which the “Sensitivity … from patients” value in series [6] was “sensitive”. Also, the “Effect of N-acetyl cysteine (NAC)” value in series [4] is listed as “mildly attenuated”. For the same compound, the “Tumor growth at 14 days” value in [9] (10mg/kg IP) turned out to be 7%. Also, in [9] (10mg/kg, after 14 days), the “Apoptosis as assayed by TUNEL” value is on record as “no significant increase”; the “Mitotic figures, Ki67 and pHH3 positive cells in tumors” value is recorded as “almost complete disappearance”. Moreover, the “Macroscopic assessment of tumors” value in [9] (quisinostat 10mg/kg daily IP, 14 days) was “necrosis in the drug treated tumors”.

Regarding `Cc1ccc(S(=O)(=O)c2ccc([N+](=O)[O-])o2)cc1` [NSC697923], in series [6], the “Sensitivity … from patients” value was “blunted response” and the “Drug sensitivity of FLC.T6 compared with derived PDX FLC6 (EC50)” value is on record as “outliers”. Besides, the “Effect of N-acetyl cysteine (NAC)” value in series [4] is reported as “completely abrogated”. For the same compound, the “Efficacy ranking in the screen” value in series [2] is listed as 7.

For the compound `CC[C@@]1(O)C(=O)OCc2c1cc1n(c2=O)Cc2cc3c(CN(C)C)c(O)ccc3nc2-1` [topotecan], in [8], the “Synergy with A1331852” value is reported as “some synergy”.

With `CC(=O)c1cc2c(o1)C(=O)c1ccccc1C2=O` [napabucasin], in series [6], the “Sensitivity … from patients” value is reported as “sensitive” and the “Drug sensitivity of FLC.T6 compared with derived PDX FLC6 (EC50)” value is listed as “correlated well”. Also, the “Effect of N-acetyl cysteine (NAC)” value in series [4] was “partially attenuated”. Also, in [10] (setting [20]), the “Tumor growth at 7 days” value is 44% and the “Tumor growth at 14 days” value turned out to be 52%. Further, in series [10] (setting [21]), the Average weight loss was determined as 6.7% and the “Ratio of tumor volume:mouse weight” value is recorded as “stable or decreased”. Moreover, in series [10] (setting [22]), the “Mitotic figures, Ki67 and pHH3 positive cells in tumors” value is “decrease”; the “TUNEL positive cells in tumors” value is on record as “small increase”. For the same compound, the “Effect on PHH (dose response, normalized percent survival)” value in series [5] is reported as “no detectable effect”. Further, the c-Myc levels entry in series [11] (1 μM napabucasin, FLC cells, GAPDH control) was “dramatic decrease”. The “Levels of MDM2, Bcl-xL, MCL1 and Cyclin D1” value in [11] (napabucasin 1μM or 2μM, FLC6 cells) is “lowered the levels”.

Consider `CCc1c2c(nc3ccc(O)cc13)-c1cc3c(c(=O)n1C2)COC(=O)[C@]3(O)CC` [SN-38], for which, in series [6], the “Sensitivity … from patients” value is on record as “sensitive” and the “Drug sensitivity of FLC.T6 compared with derived PDX FLC6 (EC50)” value is reported as “correlated well”. Further, the “Effect of N-acetyl cysteine (NAC)” value in [4] was “no effect”. In series [2], the “Effect on FLC PDX cells in vitro (dose response, normalized percent survival)” value is “effective only against FLC1,3,4” and the “Efficacy ranking in the screen” value was 13.

With `NC1(C(=O)N[C@@H](CCO)c2ccc(Cl)cc2)CCN(c2nc[nH]c3nccc2-3)CC1` [Capivasertib (AZD5363), Capivasertib], the EC50 in series [5] is more than 10 µM; in [12], 12.6 µM; in series [13] it was 3.85 µM; in [14] it was 2.09 µM; in [15] it was 5.15 µM; in series [16], 2.98 µM.

In the case of `Cc1c(-c2ccc(N3CCc4cccc(C(=O)Nc5nc6ccccc6s5)c4C3)nc2C(=O)O)cnn1CC12CC3CC(CC(C3)C1)C2` [A1331852], the “Synergy with panobinostat” value in series [7] is on record as “synergized”.

By Ki is commonly meant a dissociation constant, usually derived from enzyme kinetics or from competition with a known ligand. Turning to `O=S(=O)(NCCNC/C=C/c1ccc(Br)cc1)c1cccc2cnccc12` [H89], the “Therapeutic window for FLC over PHH” value in series [2] was “no therapeutic window”. Further, the EC50 in series [5] stood at 41.5 µM; in [12], 9.49 µM; in [13], 23.9 µM; in [14] it was 20.9 µM; in series [15], 18.2 µM; in [16], 5.82 µM. The Ki in [17] was 0.48 µM; in [18], 0.048 µM.

As for SBI-0640756, in [6], the “Sensitivity … from patients” value was “sensitive”. Besides, the “Effect of N-acetyl cysteine (NAC)” value in series [4] is “completely abrogated”. Also, in [2], the “Therapeutic window for FLC over PHH” value is on record as “clear therapeutic window” and the “Efficacy ranking in the screen” value was found to be 19.

`CNC(=O)c1cccc(-c2ccc3c(N4CCOC[C@@H]4C)nc(N4CCOC[C@@H]4C)nc3n2)c1` [visusertib]: the “Synergy with A1331852” value in [8] is given as “some synergy”.

For `C=CC(=O)N1CC/C(=C\c2ccc(F)c([N+](=O)[O-])c2)C(=O)/C(=C/c2ccc(F)c([N+](=O)[O-])c2)C1` [VLX1570], in [6], the “Sensitivity … from patients” value is listed as “blunted response” and the “Drug sensitivity of FLC.T6 compared with derived PDX FLC6 (EC50)” value is on record as “outliers”. In series [4], the “Effect of N-acetyl cysteine (NAC)” value is “completely abrogated”. Moreover, the “Efficacy ranking in the screen” value in series [2] is recorded as 31.

Regarding `CC(=O)[C@]1(O)Cc2c(O)c3c(c(O)c2[C@@H](O[C@H]2C[C@H](N)[C@H](O)[C@H](C)O2)C1)C(=O)c1ccccc1C3=O` [idarubicin], the “Effect on FLC PDX cells in vitro (dose response, normalized percent survival)” value in series [2] was “showed an effect on some of the FLC PDX”. In series [8], the “Synergy with A1331852” value is reported as “some synergy”.

Take `CC(=O)Nc1cccc(-n2c(=O)n(C3CC3)c(=O)c3c(Nc4ccc(I)cc4F)n(C)c(=O)c(C)c32)c1` [trametinib]: in series [19], the “Result in primary screen (normalized percent survival)” value is “None”. For the same compound, the “Synergy with A1331852” value in series [8] is “some synergy”.

As to `CCc1cnn2c(NCc3ccc[n+]([O-])c3)cc(N3CCCC[C@H]3CCO)nc12` [dinaciclib], the “Sensitivity … from patients” value in series [6] was “some sensitivity”. Also, the “Effect on PHH (dose response, normalized percent survival)” value in [5] is given as “toxic”.
